This is an account of results in patent publication US20210145730A1, “PROCESS FOR PREPARING AN ORAL DISINTEGRATING DOSAGE FORM” (Zeenar Enterprises Pty Ltd, priority 2017, published 2021).

The conditions of data set [1]: cited from earlier work.
A short description of data set [2]: SAXS liquid crystalline phase formation for mixes of GMO and another ingredient immersed in PBS buffer (Example 1). It counts as physicochemical. On the procedure:
The samples were then mixed via a roller mixer at ˜10 RPM at 40° C. for at least 3 days. One week prior to SAXS experiment, 100 mg samples were loaded into a transparent polystyrene 96 well plate (Nunc™) and immersed in 200 μL of PBS buffer (pH 6.8). The samples were stored away from light at ambient temperature, to allow the samples to reach equilibrium. The SAXS/WAXS beamline at Australian Synchrotron, Melbourne, Australia was used to determine the liquid crystalline nanostructure in the samples. A custom-designed plate holder was used to mount the samples plate directly onto the SAXS/WAXS beamline. Scans were automated using a pre-loaded set of position variables based on the well positions within the plate, the exposure time was 5 sec. Data were obtained at ambient temperature (˜22° C.). […] The 2-D diffraction images were recorded on a Pilatus 1M detector and radially integrated using the in-house software “ScatterBrain”.

The conditions of data set [3]: WO 2014/179845; cited from earlier work.
In another data set the test system is porcine buccal mucosa. In words: In vitro release through porcine buccal mucosa in Ussing chamber. Particulars: up to 4 hours, n=5.
[4] abbreviates: 1% w/w ingredient in mix with GMO.
[5] abbreviates: 5% w/w ingredient in mix with GMO.
[6] abbreviates: 20% and above w/w ingredient in mix with GMO.

The structures appear in SMILES notation. Where a name gives a salt, the structure may show the parent alone. Read-outs that look alike come from different tables or passages of the source.

As to `CNCC(O)c1ccc(O)c(O)c1` (centres unmarked) [Adrenaline], in data set [1], the logP is recorded as −0.5 to −1.2.
As for `COc1ccc(O)c(C(C)(C)C)c1` [Butylated hydroxy anisole (BHA), Butylated hydroxy anisole], the “Liquid crystalline phase formed” value in data set [2] (setting [4]) was “cubic”; in data set [2] (setting [5]) it was “cubic + hexagonal”; in data set [2] (10-20% w/w ingredient in mix with GMO) it was “hexagonal”; in data set [2] (30% and above w/w ingredient in mix with GMO), “reverse emulsion”. In addition, the Phase structure entry in data set [2] (Concentration in GMO 1%) is given as “V2(Pn3m)”; in data set [2] (Concentration in GMO 5%), “V2(Pn3m) + H2”.
Take `CC1CCC(C(C)C)C(O)C1` (centres unmarked) [Menthol]: the “Liquid crystalline phase formed” value in data set [2] (setting [4]) is reported as “Cubic”; in data set [2] (1% w/w ingredient in mix with GMO, listed as menthol), “cubic liquid crystalline structure”; in data set [2] (setting [5]) it was “hexagonal liquid crystalline structure”; in data set [2] (5-10% w/w ingredient in mix with GMO) it was “Hexagonal”; in data set [2] (setting [6]), “Lamellar”; in data set [2] (20 to 50% ingredient directly mixed with GMO) it was “reverse lamella crystalline structure”. In addition, the Phase structure result in data set [2] (Concentration in GMO 1%) was “V2(Pn3m)”.
In the case of `O=C(O)c1cccnc1` [Niacin], the logP in data set [1] is 0.36. Besides, the “liquid crystalline phase formed by blend with GMO” value in data set [3] is recorded as “hexagonal phase”.
Regarding `COc1ccc2c3c1O[C@H]1C(=O)CC[C@@]4(O)[C@@H](C2)N(C)CC[C@]314` [Oxycodone], the “release characteristics (appearance of active ingredient in the receptor chamber over time)” value in the data set with porcine buccal mucosa was “prolonged release profile with release continuing steadily at 4 hours”.
Regarding `CC(C)c1nc(N(C)S(C)(=O)=O)nc(-c2ccc(F)cc2)c1/C=C/[C@@H](O)C[C@@H](O)CC(=O)O` [Rosuvastatin, reference compound], the “Liquid crystalline phase formed” value in data set [2] (setting [6]) was “Lamellar”; in data set [2] (up to 15% w/w ingredient in mix with GMO) it was “Cubic (2 types)”. For the same compound, the Phase structure entry is recorded as “V2(Pn3m)” in data set [2] (Concentration in GMO 1%); “V2(Pn3m)” in data set [2] (Concentration in GMO 5%); “V2(Pn3m)” in data set [2] (Concentration in GMO 10%); “V2(Pn3m) + V2(Im3m)” in data set [2] (Concentration in GMO 15%); “Lα” in data set [2] (Concentration in GMO 20%); “Lα + Lα” in data set [2] (Concentration in GMO 35%). Besides, the Phase structure entry in data set [2] (Concentration in GMO 50%) is listed as “Lα”. In data set [2] (directly mixed with GMO, contact with hydrophilic solvent), the “limit of inclusion before GMO is prevented from forming a cubic liquid crystalline structure” value is given as 15%. In addition, the logP is 1.80 at pH 5 in data set [1] (at pH 5) and 0.30 at pH 7 in data set [1] (at pH 7).
In the case of `O=S(=O)([O-])NC1CCCCC1.[Na+]` [Sodium cyclamate], the “Liquid crystalline phase formed” value is “lamellar” in data set [2] (20% w/w ingredient in mix with GMO), “lamellar + crystals” in data set [2] (50% w/w ingredient in mix with GMO) and “cubic” in data set [2] (up to 10% w/w ingredient in mix with GMO). The Phase structure result was “V2(Pn3m)” in data set [2] (Concentration in GMO 1%); “V2(Pn3m)” in data set [2] (Concentration in GMO 5%); “V2(Pn3m) + other” in data set [2] (Concentration in GMO 10%); “Lα (lamella)” in data set [2] (Concentration in GMO 20%); “Lα + other” in data set [2] (Concentration in GMO 35%); “Lα + other” in data set [2] (Concentration in GMO 50%).
As for `CCOC(=O)CC(O)(CC(=O)OCC)C(=O)OCC` [Tri ethyl citrate (TEC), Tri ethyl citrate], the “Liquid crystalline phase formed” value in data set [2] (35% and above w/w ingredient in mix with GMO) is recorded as “reverse emulsion”; in data set [2] (up to 20% w/w ingredient in mix with GMO), “cubic”. Besides, the Phase structure entry is recorded as “V2(Pn3m) (ie” in data set [2] (Concentration in GMO 1%), “V2(Pn3m)” in data set [2] (Concentration in GMO 5%), “V2(Pn3m)” in data set [2] (Concentration in GMO 10%) and “V2(Pn3m)” in data set [2] (Concentration in GMO 20%).
